The target of one series is Carbonic anhydrase 1 (Homo sapiens, UniProt P00915). Kind of series: Inhibition of human carbonic anhydrase-1 preincubated for 15 mins by stopped flow CO2 dehydration method.
Another series concerns the target Carbonic anhydrase 2 (Homo sapiens, UniProt P00918). Kind of series: Inhibition of human carbonic anhydrase-2 preincubated for 15 mins by stopped flow CO2 dehydration method.
In another series the target is Carbonic anhydrase 12 (Homo sapiens, UniProt O43570). Kind of series: Inhibition of human carbonic anhydrase-12 preincubated for 15 mins by stopped flow CO2 dehydration method.
Sequence of Carbonic anhydrase 12 (O43570 whole entry): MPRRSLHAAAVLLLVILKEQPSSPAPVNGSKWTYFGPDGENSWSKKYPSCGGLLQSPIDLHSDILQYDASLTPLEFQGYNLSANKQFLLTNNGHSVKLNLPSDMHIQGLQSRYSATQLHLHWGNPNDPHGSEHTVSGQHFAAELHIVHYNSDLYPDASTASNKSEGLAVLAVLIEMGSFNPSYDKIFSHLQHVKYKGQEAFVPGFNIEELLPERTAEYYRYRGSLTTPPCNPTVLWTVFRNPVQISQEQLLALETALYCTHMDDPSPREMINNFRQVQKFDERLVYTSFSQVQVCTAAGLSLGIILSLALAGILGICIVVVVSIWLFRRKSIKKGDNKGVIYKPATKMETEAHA
The species named for a further series is Homo sapiens. Put plainly: Selectivity ratio of Ki for human carbonic anhydrase-9 to Ki for human carbonic anhydrase-2.
In a further series the target is Carbonic anhydrase 9 (Homo sapiens, UniProt Q16790).
In another series the target is Carbonic anhydrase 14 (Homo sapiens, UniProt Q9ULX7).
Sequence of Carbonic anhydrase 14 (Q9ULX7 whole entry): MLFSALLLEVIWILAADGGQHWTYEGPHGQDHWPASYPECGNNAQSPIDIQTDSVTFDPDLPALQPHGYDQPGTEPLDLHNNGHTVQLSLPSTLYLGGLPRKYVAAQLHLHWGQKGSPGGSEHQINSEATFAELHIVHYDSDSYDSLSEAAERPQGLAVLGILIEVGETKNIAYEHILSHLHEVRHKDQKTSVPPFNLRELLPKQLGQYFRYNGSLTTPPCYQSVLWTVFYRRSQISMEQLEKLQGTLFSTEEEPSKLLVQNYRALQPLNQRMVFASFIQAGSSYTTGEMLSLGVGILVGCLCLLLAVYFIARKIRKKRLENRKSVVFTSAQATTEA
The nature of series [1]: Solubility of the compound in phosphate buffer at pH 7.4. It is filed as physicochemical.

Converted amounts (≈) assume the structure as drawn.

Sequence of Carbonic anhydrase 1 (P00915 whole entry): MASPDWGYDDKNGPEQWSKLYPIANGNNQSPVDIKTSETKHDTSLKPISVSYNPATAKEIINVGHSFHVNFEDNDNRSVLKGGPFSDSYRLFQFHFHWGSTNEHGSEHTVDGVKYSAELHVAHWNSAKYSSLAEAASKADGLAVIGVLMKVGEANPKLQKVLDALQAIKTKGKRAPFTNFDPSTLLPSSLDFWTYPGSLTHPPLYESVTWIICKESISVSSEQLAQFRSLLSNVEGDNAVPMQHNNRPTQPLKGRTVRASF
Description for Carbonic anhydrase 14: Inhibition of human carbonic anhydrase-14 preincubated for 15 mins by stopped flow CO2 dehydration method
Description for Carbonic anhydrase 9: Inhibition of human carbonic anhydrase-9 preincubated for 15 mins by stopped flow CO2 dehydration method

For `CN(C)c1ccc2c(-c3ccc(NC(=S)NCc4cn(-c5cccc(S(N)(=O)=O)c5)nn4)cc3C(=O)O)c3ccc(=[N+](C)C)cc-3oc2c1`, the inhibition constant Ki on Carbonic anhydrase 1 was found to be 6420 nM; on Carbonic anhydrase 2, 88 nM; at Carbonic anhydrase 12, 10.7 nM; on Carbonic anhydrase 9 it was 24.3 nM; at Carbonic anhydrase 14 it was 31.4 nM. The Ratio Ki in the series filed under Homo sapiens was found to be 3.62.

For `NS(=O)(=O)c1ccc(CCNC(=S)Nc2ccc(-c3c4ccc(=O)cc-4oc4cc(O)ccc34)c(C(=O)O)c2)cc1`, the affinity on Carbonic anhydrase 14, expressed as Ki, was 33 nM.

Turning to `NS(=O)(=O)c1ccc(CNC(=S)Nc2ccc(-c3c4ccc(=O)cc-4oc4cc(O)ccc34)c(C(=O)O)c2)cc1`, the concentration in solution in series [1] (solubility) was 1200 µg/mL (≈ 2.08 mM). The Ki on Carbonic anhydrase 12 stood at 7 nM; at Carbonic anhydrase 14 it was 41 nM.

In turn, `NS(=O)(=O)c1ccc(-n2cc(CNC(=S)Nc3ccc(-c4c5ccc(=O)cc-5oc5cc(O)ccc45)c(C(=O)O)c3)nn2)cc1` came in with a solubility in series [1] of 3800 µg/mL (≈ 5.91 mM). The Ki stood at 2560 nM on Carbonic anhydrase 1, 36 nM on Carbonic anhydrase 2, 4.1 nM on Carbonic anhydrase 12 and 8.1 nM on Carbonic anhydrase 9.

Take `NS(=O)(=O)c1cccc(-n2cc(CNC(=S)Nc3ccc(-c4c5ccc(=O)cc-5oc5cc(O)ccc45)c(C(=O)O)c3)nn2)c1`: the inhibition constant (Ki) is 7630 nM on Carbonic anhydrase 1, 127 nM at Carbonic anhydrase 2, 20.5 nM at Carbonic anhydrase 12 and 36.9 nM at Carbonic anhydrase 9.

The Ki is the dissociation constant of the complex between target and ligand, obtained from inhibition or displacement. Higher therefore signals lower affinity. One may read the solubility as how much of the substance goes into solution per volume. Read a low solubility as a poorly soluble substance.

Source of the values: ChEMBL document CHEMBL3739285, “Fluorescent sulfonamide carbonic anhydrase inhibitors incorporating 1,2,3-triazole moieties: Kinetic and X-ray crystallographic studies” (Bioorg Med Chem, 2016).
